Biological target: FAK kinase (catalytic construct FAK(410-689)) (Homo sapiens (Human), UniProt Q05397)
Assay: FAKcd kinase ELISA (inhibition of poly-glu-tyr phosphorylation by FAK(410-689))
Type: biochemical
Settings: 50 μM final ATP

FAK kinase (catalytic construct FAK(410-689)), sequence (Q05397 410-689): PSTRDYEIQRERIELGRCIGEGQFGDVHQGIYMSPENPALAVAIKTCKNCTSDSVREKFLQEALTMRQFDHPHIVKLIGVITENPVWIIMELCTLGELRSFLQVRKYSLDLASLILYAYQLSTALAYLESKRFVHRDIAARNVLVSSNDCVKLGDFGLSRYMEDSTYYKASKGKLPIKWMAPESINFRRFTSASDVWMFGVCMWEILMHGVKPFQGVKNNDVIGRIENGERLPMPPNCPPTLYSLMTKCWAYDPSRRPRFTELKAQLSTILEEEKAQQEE

Compound: CN(c1cccc(CNc2nc(Nc3ccc(C(N)=O)cc3)ncc2C(F)(F)F)c1)S(C)(=O)=O [Compound 99, 4-{[4-({3-[methyl(methylsulfonyl)amino]benzyl}amino)-5-(trifluoromethyl)pyrimidin-2-yl]amino}benzamide]
- IC50: 0.38 nM

Compound: CN(c1nccnc1CNc1nc(Nc2ccc(C3COC(C)(C)O3)cc2)ncc1C(F)(F)F)S(C)(=O)=O (stereo not drawn) [Compound 409, N-[3-({[2-{[4-(2,2-dimethyl-1,3-dioxolan-4-yl)phenyl]amino}-5-(trifluoromethyl)pyrimidin-4-yl]amino}methyl)pyrazin-2-yl]-N-methylmethane-sulfonamide]
- IC50: 4.75 nM

Compound: Cc1ccc(CNc2nc(Nc3ccccc3)ncc2C(F)(F)F)c(N(C)S(C)(=O)=O)n1 [Compound 51, N-[3-({[2-anilino-5-(trifluoromethyl)pyrimidin-4-yl]amino}methyl)-6-methylpyridin-2-yl]-N-methylmethanesulfonamide]
- IC50: 0.59 nM

Compound: CN(c1ncccc1CNc1nc(Nc2cccc(C(=O)NCC3(O)CCC3)c2)ncc1C(F)(F)F)S(C)(=O)=O [Compound 127, N-[(1-hydroxycyclobutyl)methyl]-3-({4-[({2-[methyl(methylsulfonyl)amino]pyridin-3-yl}methyl)amino]-5-(trifluoromethyl)pyrimidin-2-yl}amino)benzamide]
- IC50: 2.11 nM

Compound: CN(c1nccnc1CNc1nc(Nc2cccc(C(N)=O)c2)ncc1C(F)(F)F)S(C)(=O)=O [Compound 297, 3-({4-[({3-[melhyl(methylsulfonyl)amino]pyrazin-2-yl}methyl)amino]-5-(trifluoromethyl)pyrimidin-2-yl}amino)benzamide]
- IC50: 2.26 nM

Compound: CN(c1ncccc1CNc1nc(Nc2ccc(OC(F)(F)F)cc2)ncc1C(F)(F)F)S(C)(=O)=O [Compound 284, N-methyl-N-[3-({[2-{[4-(trifluoromethoxy)phenyl]amino}-5-(trifluoromethyl)pyrimidin-4-yl]amino}rnethyl)pyridin-2-yl]methanesulfonamide]
- IC50: 1.83 nM

Compound: Cc1cc(N(C)S(C)(=O)=O)c(CNc2nc(Nc3ccc(C(N)=O)cc3)ncc2C(F)(F)F)cn1 [Compound 85, 4-({4-[({6-methyl-4-[methyl(methylsulfonyl)amino]pyridin-3-yl}methyl)amino]-5-(trifluoromethyl)pyrimidin-2-yl}amino)benzamide]
- IC50: 0.84 nM

Compound: CN(c1ncccc1CNc1nc(NC2CCN(C(N)=O)CC2)ncc1C(F)(F)F)S(C)(=O)=O [Compound 57, 4-({4-[({2-[methyl(methylsulfonyl)amino]pyridin-3-yl}methyl)amino]-5-(trifluoromethyl)pyrimidin-2-yl}amino)piperidine-1-carboxamide]
- IC50: 188 nM

Compound: CN(c1ncccc1CNc1nc(Nc2ccc(C(=O)NC[C@@H]3C[C@H]3CO)cc2)ncc1C(F)(F)F)S(C)(=O)=O [Compound 273, N-{[(1R,2R)-2-(hydroxymethyl)cyclopropyl}methyl}-4-({4-[({2-[methyl(methylsulfonyl)amino]pyridin-3-yl}methyl)amino]-5-(trifluoromethyl)pyrimidin-2-yl}amino)benzamide]
- IC50: 2.69 nM

Compound: COCCCN(C)C(=O)c1ccc(Nc2ncc(C(F)(F)F)c(NCc3cccnc3N(C)S(C)(=O)=O)n2)cc1 [Compound 277, N-(3-methoxypropyl)-N-methyl-4-({4-[({2-[methyl(methylsulfonyl)amino]pyridin-3-yl}methyl)arnino]-5-(trifluoromethyl)pyrimidin-2-yl}amino)benzamide]
- IC50: 2.36 nM

Compound: CN(c1ncccc1CNc1nc(Nc2ccc(C(=O)O)cc2)ncc1C(F)(F)F)S(C)(=O)=O [Compound 43, 4-({4-[({2-[methyl(methylsulfonyl)amino)pyridin-3-yl}methyl)amino]-5-(trifluoromethyl)pyrimidin-2-yl}amino)benzoic acid]
- IC50: 0.6 nM

Compound: CC(=O)NCC(=O)NCc1ccc(Nc2ncc(C(F)(F)F)c(NCc3cccnc3N(C)S(C)(=O)=O)n2)cc1 [Compound 215, N~2~-acetyl-N-[4-({4-[({2-[methyl(methylsulfonyl)amino]pyridin-3-yl}methyl)amino]-5-(trifluoromethyl)pyrimidin-2-yl}amino)benzyl]glycinamide]
- IC50: 0.6 nM

Compound: Cc1ccnc(N(C)S(C)(=O)=O)c1CNc1nc(Nc2ccccc2)ncc1C(F)(F)F [Compound 78, N-[3-({[2-anilino-5-(trifluoromethyl)pyrimidin-4-yl)amino}methyl)-4-methylpyridin-2-yl]-N-methylmethanesulfonamide]
- IC50: 0.6 nM

Compound: CN(C)CCCNC(=O)c1ccc(Nc2ncc(C(F)(F)F)c(NCc3cccnc3N(C)S(C)(=O)=O)n2)cc1 [Compound 233, N-[3-(dimethylamino)propyl]-4-({4-[({2-[methyl(methylsulfonyl)amino]pyridin-3-yl}methyl)amino]-5-(trifluoromethyl)pyrimidin-2-yl}amino)benzamide]
- IC50: 1.33 nM

Compound: CN(c1cccnc1CNc1nc(Nc2ccc(C(N)=O)c(F)c2)ncc1C(F)(F)F)S(C)(=O)=O [Compound 332, 2-fluoro-4-({4-[({3-[methyl(methylsulfonyl)amino]pyridin-2-yl}methyl)amino]-5-(trifluoromethyl)pyrimidin-2-yl}amino)benzamide]
- IC50: 0.863 nM

Compound: CC(C)[C@H](CO)NC(=O)c1cccc(Nc2ncc(C(F)(F)F)c(NCc3cccnc3N(C)S(C)(=O)=O)n2)c1 [Compound 161, N-[(1R)-1-(hydroxymethyl)-2-methylpropyl]-3-({4-(({2-[methyl(methylsulfonyl)amino]pyridin-3-yl}methyl)amino]-5-(trifluoromethyl)pyrimidin-2-yl}amino)benzamide]
- IC50: 3.74 nM

Compound: Cc1ccc(CNc2nc(Nc3ccc(C(N)=O)cc3)ncc2C(F)(F)F)c(NS(C)(=O)=O)c1 [Compound 112, 4-{[4-({4-methyl-2-((methylsulfonyl)amino]benzyl}amino)-5-(trifluoromethyl)pyrimidin-2-yl]amino}benzamide]
- IC50: 0.6 nM

Compound: CN(c1ncccc1CNc1nc(Nc2ccc(C(=O)NC(CO)CO)cc2)ncc1C(F)(F)F)S(C)(=O)=O [Compound 264, N-[2-hydroxy-1-(hydroxymethyl)ethyl]-4-({4-[({2-[methyl(methylsulfonyl)amino]pyridin-3-yl}methyl)amino]-5-(trifluoromethyl)pyrimidin-2-yl}amino)benzamide]
- IC50: 4.6 nM

Compound: COCCCN(C)C(=O)c1cccc(Nc2ncc(C(F)(F)F)c(NCc3cccnc3N(C)S(C)(=O)=O)n2)c1 [Compound 181, N-(3-methoxypropyl)-N-methyl-3-({4-[({2-[methyl(methylsulfonyl)amino]pyridin-3-yl}methyl)amino]-5-(trifluoromethyl)pyrimidin-2-yl}amino)benzamide]
- IC50: 9.18 nM

Compound: CN(CC1CC1)C(=O)c1ccc(Nc2ncc(C(F)(F)F)c(NCc3cccnc3N(C)S(C)(=O)=O)n2)cc1 [Compound 243]
- IC50: 2.1 nM

Compound: CN(c1ncccc1CNc1nc(Nc2cccc(C(=O)NC3CCOCC3)c2)ncc1C(F)(F)F)S(C)(=O)=O [Compound 121, 3-({4-[({2-[methyl(methylsulfonyl)amino]pyridin-3-yl}methyl)amino]-5-(trifluoromethyl)pyrimidin-2-yl}amino)-N-(tetrahydro-2H-pyran-4-yl)benzamide]
- IC50: 0.94 nM

From patent US10450297B2, “Sulfonyl amide derivatives for the treatment of abnormal cell growth” (Pfizer, Inc., priority 2007, dated 2019)
